This note sets out measurements from patent US10508111B2, “6-[5-amino-6-(2-ethoxyethoxy)-imidazo[4,5-B]pyridin-3-yl]-nicotinonitrile derivatives and their use as IRAK inhibitors” (GALAPAGOS NV, priority 2015, dated 2019).

Molecules are shown by their SMILES.

Type in all cases: biochemical
One assay has as its target T1, CDK2 (Homo sapiens, UniProt P24941).
T1 construct: purchased Carna Biosciences 04-103
The assay can be described thus: Kinase selectivity profiling (focused panel), radioactive filter plate assay: CDK2. Particulars: Histone H1-derived peptide, 0.1 μM ATP, 60 min. As for the experimental part:
(§1) The purpose of this assay is to determine the activity and selectivity of a compound of the invention on a selected range of human kinases which may result in undesirable side-effects when inhibited (Dy & Adjei 2013; Force & Kolaja 2011).
(§2) The IC50 value for off-target kinases is determined in radioactive filter plate assays. The principle of the assays consists in the measurement of incorporated ^33P into a peptide substrate upon phosphorylation by the kinase enzyme using [γ-^33P]ATP and ATP. Unincorporated ^33P is removed by loading the samples on a filter plate (using a harvester, PerkinElmer) and 6 subsequent washing steps. Incorporated ^33P in the peptide substrate is measured by a scintillation counter (Topcount, PerkinElmer) after addition of MicroScint™-20 (PerkinElmer, 6013621) to the filter plates.
(§3) 5 μL of a water dilution series of test compound (starting from 20 μM or 6.6 μM highest concentration), from a 100% DMSO stock solution, 1/5 dilution, is added to the wells (final DMSO concentration of 1% in reaction assay). Enzyme and peptide substrate are used at optimized concentrations (cf. Table VI). The enzyme and substrate are diluted in assay buffer to a total volume of 11 μL. The reaction is started by addition of 9 μL of ATP+[γ-^33P]ATP, diluted in the same buffer as enzyme and substrate. The mixture is incubated at 30° C. The reaction is terminated by adding 25 μL of 150 mM phosphoric acid. Samples are transferred to filter plates and incorporated radioactivity is measured using a scintillation counter.
(§4) The incubation time, assay buffer composition, and concentrations of ATP, enzyme and substrate are reported in Table VI for example kinase off-target assays.
(§5) 10 μM staurosporine (1% DMSO) is used as positive control (100% inhibition); vehicle (water+1% DMSO) as negative control (0% inhibition).

The target in another assay is T2, c-SRC (Homo sapiens, UniProt P12931).
T2 construct: purchased Carna Biosciences 08-173
The assay can be described thus: Kinase selectivity profiling (focused panel), radioactive filter plate assay: c-SRC. Particulars: PolyGT substrate, 0.25 μM ATP, 60 min. As for the experimental part: as §1, §2, §3, §4, §5

The target in the next assay is T3, GSK3b (Homo sapiens, UniProt P49841).
T3 construct: purchased Carna Biosciences 04-141
The assay can be described thus: Kinase selectivity profiling (focused panel), radioactive filter plate assay: GSK3b. Particulars: Phospho glycogen synthase peptide2, 1.5 μM ATP, 90 min. As for the experimental part: as §1, §2, §3, §4, §5

A further assay deals with T4, CDK9 (Homo sapiens, UniProt P50750).
T4 construct: purchased Millipore 14-685
The assay can be described thus: Kinase selectivity profiling (focused panel), radioactive filter plate assay: CDK9. Particulars: PDKtide, 0.25 μM ATP, 60 min. As for the experimental part: as §1, §2, §3, §4, §5

In the next assay the target is T5, human IRAK-4 (Homo sapiens, UniProt Q9NWZ3).
T5 construct: purchased Carna Biosciences 09-145
T5 sequence (Q9NWZ3 1-460): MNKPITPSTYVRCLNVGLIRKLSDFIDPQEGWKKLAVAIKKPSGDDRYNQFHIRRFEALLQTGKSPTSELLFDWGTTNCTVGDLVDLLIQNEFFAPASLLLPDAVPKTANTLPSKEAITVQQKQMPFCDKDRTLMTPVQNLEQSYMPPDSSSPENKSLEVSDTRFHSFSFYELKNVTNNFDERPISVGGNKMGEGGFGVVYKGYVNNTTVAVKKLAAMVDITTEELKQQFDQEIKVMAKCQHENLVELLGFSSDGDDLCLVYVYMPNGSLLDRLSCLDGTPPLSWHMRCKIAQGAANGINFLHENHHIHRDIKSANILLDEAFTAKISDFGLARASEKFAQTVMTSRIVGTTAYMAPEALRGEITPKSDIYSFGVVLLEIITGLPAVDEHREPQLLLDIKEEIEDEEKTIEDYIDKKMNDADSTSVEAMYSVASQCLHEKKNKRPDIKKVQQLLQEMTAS
The experiment in a line: IC50 determination for human IRAK-4, radioactive filter plate assay. Particulars: RIP140 substrate, 1 μM ATP + [γ-33P]ATP, 30° C., 45 min; read-out: hIRAK-4 IC50. As for the experimental part: The IC50 value for IRAK-4 is determined in a radioactive filter plate assay. The principle of the assay consists in the measurement of incorporated ^33P into the RIP140 substrate upon phosphorylation by the enzyme IRAK-4 using [γ-^33P]ATP and ATP. Unincorporated ^33P is removed by loading the samples on a filter plate (using a harvester, PerkinElmer) and 6 subsequent washing steps. Incorporated ^33P in RIP140 is measured by a scintillation counter (Topcount, PerkinElmer) after addition of MicroScint™-20 (PerkinElmer, 6013621) to the filter plates.
5 μL of a water dilution series of test compound (starting from 20 μM or 6.6 μM highest concentration), from a 100% DMSO stock solution, 1/5 dilution, is added to the wells (final DMSO concentration of 1% in reaction assay). IRAK-4 (Carna Biosciences, 09-145) and RIP140 (SEQ ID1, cf. Table VII) are used at a final concentration of 10 ng/mL and 4 μM, respectively. The enzyme and substrate are diluted in 25 mM Tris pH 7.5, 0.025% Triton X-100, 5 mM MnCl2, and 2 mM DTT to a total volume of 11 μL. The reaction is started by addition of 9 μL of 1 μM ATP (Sigma, A6419-5G)+0.25 μCi [γ-^33P]ATP (PerkinElmer, NEG602K001MC), diluted in the same buffer as enzyme and substrate. The mixture is incubated at 30° C. for 45 min. The reaction is terminated by adding 25 μL of 150 mM phosphoric acid (VWR, 1.00573.1000). Samples are transferred to filter plates and incorporated radioactivity is measured using a scintillation counter.
as §5

A further assay deals with T6, ABL (Homo sapiens, UniProt P00519).
T6 construct: purchased Life Technologies P3049
The assay can be described thus: Kinase selectivity profiling (focused panel), radioactive filter plate assay: ABL. Particulars: PolyGT substrate, 0.5 μM ATP, 60 min. As for the experimental part: as §1, §2, §3, §4, §5

T4 sequence (P50750 whole entry): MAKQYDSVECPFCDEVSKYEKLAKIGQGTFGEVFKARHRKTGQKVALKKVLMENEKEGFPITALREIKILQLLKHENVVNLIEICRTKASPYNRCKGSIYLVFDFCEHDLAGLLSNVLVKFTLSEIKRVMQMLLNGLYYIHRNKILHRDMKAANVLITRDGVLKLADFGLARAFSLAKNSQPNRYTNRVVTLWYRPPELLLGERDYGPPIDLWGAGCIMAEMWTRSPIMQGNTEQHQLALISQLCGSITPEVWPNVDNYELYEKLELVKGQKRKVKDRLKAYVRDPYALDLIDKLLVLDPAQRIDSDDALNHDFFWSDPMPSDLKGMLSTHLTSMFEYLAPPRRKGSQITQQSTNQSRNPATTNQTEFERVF
T4 sequence (O60563 whole entry partner): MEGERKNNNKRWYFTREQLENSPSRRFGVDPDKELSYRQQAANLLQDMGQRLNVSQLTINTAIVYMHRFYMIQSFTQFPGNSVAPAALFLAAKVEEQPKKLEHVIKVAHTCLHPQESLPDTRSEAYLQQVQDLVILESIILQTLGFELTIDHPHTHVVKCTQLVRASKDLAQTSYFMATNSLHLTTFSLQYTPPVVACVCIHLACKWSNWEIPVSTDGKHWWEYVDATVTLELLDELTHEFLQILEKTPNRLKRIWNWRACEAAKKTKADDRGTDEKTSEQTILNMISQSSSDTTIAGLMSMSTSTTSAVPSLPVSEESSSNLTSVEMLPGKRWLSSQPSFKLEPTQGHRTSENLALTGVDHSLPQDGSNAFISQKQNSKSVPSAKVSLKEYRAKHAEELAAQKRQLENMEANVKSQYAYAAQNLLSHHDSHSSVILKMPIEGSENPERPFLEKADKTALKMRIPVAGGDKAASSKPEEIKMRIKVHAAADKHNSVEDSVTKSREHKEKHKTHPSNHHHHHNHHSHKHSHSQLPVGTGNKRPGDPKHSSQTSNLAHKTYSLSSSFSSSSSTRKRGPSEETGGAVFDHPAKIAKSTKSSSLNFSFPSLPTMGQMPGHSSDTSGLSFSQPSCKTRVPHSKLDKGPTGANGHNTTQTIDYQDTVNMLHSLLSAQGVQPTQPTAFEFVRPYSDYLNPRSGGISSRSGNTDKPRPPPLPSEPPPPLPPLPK
T3 sequence (P49841 whole entry): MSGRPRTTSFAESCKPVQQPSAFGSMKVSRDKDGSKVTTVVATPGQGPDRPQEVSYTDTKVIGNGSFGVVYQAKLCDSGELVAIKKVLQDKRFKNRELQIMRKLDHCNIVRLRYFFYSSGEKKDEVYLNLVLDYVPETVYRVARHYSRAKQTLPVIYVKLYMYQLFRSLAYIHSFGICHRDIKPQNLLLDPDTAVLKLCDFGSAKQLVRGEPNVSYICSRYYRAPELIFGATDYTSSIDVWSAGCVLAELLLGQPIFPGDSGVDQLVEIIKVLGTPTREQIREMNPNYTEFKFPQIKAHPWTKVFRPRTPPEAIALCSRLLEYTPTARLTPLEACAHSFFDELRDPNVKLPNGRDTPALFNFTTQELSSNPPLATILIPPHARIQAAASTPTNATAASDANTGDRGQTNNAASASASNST
T6 sequence (P00519 whole entry): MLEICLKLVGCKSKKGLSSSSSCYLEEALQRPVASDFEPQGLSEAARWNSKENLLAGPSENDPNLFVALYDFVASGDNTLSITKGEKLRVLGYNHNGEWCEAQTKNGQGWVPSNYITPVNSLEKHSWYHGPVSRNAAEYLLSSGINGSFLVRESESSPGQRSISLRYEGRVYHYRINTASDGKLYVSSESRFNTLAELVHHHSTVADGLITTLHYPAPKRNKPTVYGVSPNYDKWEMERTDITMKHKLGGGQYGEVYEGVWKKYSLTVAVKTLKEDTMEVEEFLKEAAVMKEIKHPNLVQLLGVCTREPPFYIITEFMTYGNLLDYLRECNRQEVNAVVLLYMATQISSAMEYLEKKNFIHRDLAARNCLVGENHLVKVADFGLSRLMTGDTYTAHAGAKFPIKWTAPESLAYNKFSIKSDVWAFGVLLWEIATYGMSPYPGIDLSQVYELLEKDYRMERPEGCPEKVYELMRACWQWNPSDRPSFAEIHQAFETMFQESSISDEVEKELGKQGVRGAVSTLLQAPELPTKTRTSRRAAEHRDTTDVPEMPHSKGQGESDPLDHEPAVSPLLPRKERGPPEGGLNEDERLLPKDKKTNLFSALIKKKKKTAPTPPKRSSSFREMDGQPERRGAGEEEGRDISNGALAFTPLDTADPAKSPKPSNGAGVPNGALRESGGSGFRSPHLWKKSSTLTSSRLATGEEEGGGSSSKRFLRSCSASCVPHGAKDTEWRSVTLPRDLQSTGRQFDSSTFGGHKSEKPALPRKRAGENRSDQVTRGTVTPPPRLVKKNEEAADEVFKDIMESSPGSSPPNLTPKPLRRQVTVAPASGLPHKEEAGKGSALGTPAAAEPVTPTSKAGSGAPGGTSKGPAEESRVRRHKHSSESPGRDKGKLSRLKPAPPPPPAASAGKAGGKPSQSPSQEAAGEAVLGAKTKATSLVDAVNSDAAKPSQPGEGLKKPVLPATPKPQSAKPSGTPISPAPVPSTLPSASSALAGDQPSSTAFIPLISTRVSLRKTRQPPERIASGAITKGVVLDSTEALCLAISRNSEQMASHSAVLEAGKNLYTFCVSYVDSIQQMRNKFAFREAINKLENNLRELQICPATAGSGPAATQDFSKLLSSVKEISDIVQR
T2 sequence (P12931 whole entry): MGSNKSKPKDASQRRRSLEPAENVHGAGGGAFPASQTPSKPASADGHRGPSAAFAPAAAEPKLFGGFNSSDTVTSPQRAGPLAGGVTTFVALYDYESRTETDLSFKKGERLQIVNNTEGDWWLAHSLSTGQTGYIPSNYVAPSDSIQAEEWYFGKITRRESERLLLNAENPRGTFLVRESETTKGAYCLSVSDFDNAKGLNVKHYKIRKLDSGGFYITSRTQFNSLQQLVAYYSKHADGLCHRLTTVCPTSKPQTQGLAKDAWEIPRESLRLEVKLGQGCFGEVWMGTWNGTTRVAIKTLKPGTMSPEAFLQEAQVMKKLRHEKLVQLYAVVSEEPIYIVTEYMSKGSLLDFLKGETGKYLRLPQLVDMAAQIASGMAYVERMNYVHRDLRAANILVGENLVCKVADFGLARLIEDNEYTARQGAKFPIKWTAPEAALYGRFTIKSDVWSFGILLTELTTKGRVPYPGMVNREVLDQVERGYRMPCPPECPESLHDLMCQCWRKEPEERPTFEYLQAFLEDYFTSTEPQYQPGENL

Regarding `N#Cc1ccc(-n2cnc3cc(OCCOCCO)c(N[C@@H]4COCC[C@@H]4O)nc32)nc1` (relative stereo) [Compound 11, 6-[6-[2-(2-hydroxyethoxy)ethoxy]-5-[[(cis-3,4)-4-hydroxytetrahydropyran-3-yl]amino]imidazo[4,5-b]pyridin-3-yl]pyridine-3-carbonitrile], the IC50 (in general, the point on the concentration scale where inhibition reaches its midpoint) at CDK2 is above 1330 nM; at c-SRC, above 1330 nM; on GSK3b, above 1330 nM; at CDK9, 834 nM; on human IRAK-4, 14.3 nM.
Turning to `N#Cc1ccc(-n2cnc3cc(OCCOCCO)c(NC4CCS(=O)(=O)CC4)nc32)nc1` [Compound 2, 6-{5-(1,1-dioxo-tetrahydro-2H-thiopyran-4-ylamino)-6-[2-(2-hydroxy-ethoxy)-ethoxy]-imidazo[4,5-b]pyridin-3-yl}-nicotinonitrile], the IC50 was above 1330 nM at CDK2; above 1330 nM at c-SRC; above 1330 nM at GSK3b; 712 nM on CDK9; 25.4 nM at human IRAK-4.
As for `CN(c1nc2c(cc1OCCOCCO)ncn2-c1ccc(C#N)cn1)[C@H]1CC[C@@](C)(O)CC1` [Compound 3, 6-{6-[2-(2-hydroxy-ethoxy)-ethoxy]-5-[((cis-1,4)-4-hydroxy-4-methyl-cyclohexyl)-methyl-amino]-imidazo[4,5-b]pyridin-3-yl}-nicotinonitrile], at human IRAK-4, the 50% inhibitory concentration (IC50) is 21.7 nM.
On the same count and under the same terms, in the case of `COCCOCCOc1cc2ncn(-c3ccc(C#N)cn3)c2nc1N(C)C1CCOCC1` [Compound 4, 6-{6-[2-(2-methoxy-ethoxy)-ethoxy]-5-[methyl-(tetrahydro-pyran-4-yl)-amino]-imidazo[4,5-b]pyridin-3-yl}-nicotinonitrile] it was 523 nM.
Take `COCCOCCOc1cc2ncn(-c3ccc(C#N)cn3)c2nc1NC1CCOCC1` [Compound 5, 6-[6-[2-(2-methoxy-ethoxy)-ethoxy]-5-(tetrahydro-pyran-4-ylamino)-imidazo[4,5-b]pyridin-3-yl]-nicotinonitrile]: the IC50 is above 4000 nM at CDK2; above 2940 nM at c-SRC; 2690 nM on ABL; above 4000 nM at GSK3b; 2290 nM on CDK9; 13.8 nM at human IRAK-4.
With `N#Cc1ccc(-n2cnc3cc(OCCOCCO)c(NC4CCCC(O)C4)nc32)nc1` (centres unmarked) [Compound 6, 6-{5-(3-hydroxy-cyclohexylamino)-6-[2-(2-hydroxy-ethoxy)-ethoxy]-imidazo[4,5-b]pyridin-3-yl}-nicotinonitrile], the IC50 is 2670 nM at CDK2; 754 nM on c-SRC; 656 nM on ABL; above 4000 nM at GSK3b; 1030 nM on CDK9; 4.85 nM on human IRAK-4.
Consider `N#Cc1ccc(-n2cnc3cc(OCCOCCO)c(NC4CCC(F)(F)CC4)nc32)nc1` [Compound 7, 6-{5-(4,4-difluoro-cyclohexylamino)-6-[2-(2-hydroxy-ethoxy)-ethoxy]-imidazo[4,5-b]pyridin-3-yl}-nicotinonitrile], for which, on human IRAK-4, the IC50 was 14.3 nM.
As for `N#Cc1ccc(-n2cnc3cc(OCCOCCOS(=O)(=O)O)c(NC4CCOCC4)nc32)nc1` [Compound 8, sulfuric acid mono-(2-{2-[3-(5-cyano-pyridin-2-yl)-5-(tetrahydro-pyran-4-ylamino)-3H-imidazo[4,5-b]pyridin-6-yloxy]-ethoxy}-ethyl) ester], on human IRAK-4, the IC50 was found to be 51.4 nM.
For the compound `CC(C)[C@H](N)C(=O)OCCOCCOc1cc2ncn(-c3ccc(C#N)cn3)c2nc1NC1CCOCC1` [Compound 9, (S)-2-amino-3-methyl-butyric acid 2-{2-[3-(5-cyano-pyridin-2-yl)-5-(tetrahydro-pyran-4-ylamino)-3H-imidazo[4,5-b]pyridin-6-yloxy]-ethoxy}-ethyl ester], the IC50 at CDK2 is above 4000 nM; on c-SRC it was 286 nM; at ABL, 633 nM; at GSK3b it was 3250 nM; on CDK9 it was 639 nM; on human IRAK-4 it was 13.5 nM.
In the case of `COCCOCCOc1cc2ncn(-c3ccc(C#N)cn3)c2nc1N(C)[C@H]1CC[C@@](C)(O)CC1` [Compound 13, 6-[5-[((cis-1,4)-4-hydroxy-4-methyl-cyclohexyl)-methyl-amino]-6-[2-(2-methoxyethoxy)ethoxy]imidazo[4,5-b]pyridin-3-yl]pyridine-3-carbonitrile], the IC50 on human IRAK-4 was determined as 39.1 nM.
Turning to `COCCOCCOc1cc2ncn(-c3ccc(C#N)cn3)c2nc1N[C@H]1CC[C@@](C)(O)CC1` [Compound 14, 6-[5-[((cis-1,4)-4-hydroxy-4-methylcyclohexyl)amino]-6-[2-(2-methoxyethoxy)ethoxy]imidazo[4,5-b]pyridin-3-yl]pyridine-3-carbonitrile], the IC50 worked out at 1380 nM at CDK2; 319 nM on c-SRC; 2240 nM at GSK3b; 1390 nM at CDK9; 3.45 nM on human IRAK-4.
